Test results: patent US20070179060A1, “6-(Poly-substituted aryl)-4-aminopicolinates and their use as herbicides” (priority 2006, published 2007)

Tests used:
[1] = system: lambsquarter (Chenopodium album); experiment: Postemergence herbicidal activity; type: in vivo; conditions: Chenopodium album, post-emergence, 336 h, post-emergent, 140 g ai/ha, after 14 days; read-out: % Control CHEAL
Summary of the method: (§1)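 Plants grown 7-21 days in greenhouse (about 15 h photoperiod, 23-29° C day, 22-28° C night) to first or second true leaf stage. Compounds in acetone/water/isopropanol/DMSO carrier with crop oil concentrate and Triton X-155 sprayed overhead at 187 L/ha; controls received solvent blank. Plants sub-irrigated afterwards; dose responses analysed by probit analysis.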

[2] = system: redroot pigweed (Amaranthus retroflexus); experiment: Postemergence herbicidal activity; type: in vivo; conditions: Amaranthus retroflexus, post-emergence, 336 h, post-emergent, 140 g ai/ha, after 14 days; read-out: % Control AMARE
Summary of the method: as §1

[3] = system: velvetleaf (Abutilon theophrasti); experiment: Postemergence herbicidal activity; type: in vivo; conditions: Abutilon theophrasti, post-emergence, 336 h, post-emergent, 140 g ai/ha, after 14 days; read-out: % Control ABUTH
Summary of the method: as §1

[4] = system: Cyperus difformis; experiment: Herbicidal activity in transplanted paddy rice; type: in vivo; conditions: paddy water application, after 3 weeks; for pest or weed control at 17.5 g/ha: 17.5 g ai/ha; for pest or weed control at 70 g/ha: 70 g ai/ha
Protocol: (§2) Weed seeds or nutlets of the desired test plant species were planted in puddled soil (mud) prepared by mixing a non-sterilized mineral soil (28 percent silt, 18 percent clay, and 54 percent sand, with a pH of about 7.3 to 7.8 and an organic matter content of about 1.0 percent) and water at a ratio of 100 kg of soil to 19 L of water. The prepared mud was dispensed in 250 mL aliquots into 480 mL non-perforated plastic pots with a surface area of 91.6 square centimeters leaving a headspace of 3 centimeters in each pot. […] Seedlings at the second or third leaf stage of growth were transplanted into 650 mL of mud contained in 960 mL non-perforated plastic pots with a surface area of 91.6 square centimeters 4 days prior to herbicide application. The paddy was created by filling the 3 centimeter headspace of the pots with water. When required to ensure good germination and healthy plants, a fungicide treatment and/or other chemical or physical treatment was applied. The plants were grown for 4-14 days in a greenhouse with an approximate 14 hour photoperiod which was maintained at about 29° C. during the day and 26° C. during the night. Nutrients were added as Osmocote (17:6:10, N:P:K+minor nutrients) at 2 g per pot. Water was added on a regular basis to maintain the paddy flood, and supplemental lighting was provided with overhead metal halide 1000-Watt lamps as necessary. The plants were employed for testing when they reached the second or third true leaf stage. A weighed amount, determined by the highest rate to be tested, of each test compound was placed in a 120 mL glass vial and was dissolved in 20 mL of acetone to obtain concentrated stock solutions. […] Application rates of ½×, ¼×, ⅛× and 1/16× of the high rate were obtained by injecting an appropriate amount of the stock solution into the aqueous layer of the paddy. Control plants were treated in the same manner with the solvent blank. The treated plants and control plants were placed in a greenhouse as described above and water was added as needed to maintain a paddy flood.

[5] = system: Echinochloa crus-galli; experiment: Herbicidal activity in transplanted paddy rice; type: in vivo; conditions: paddy water application, after 3 weeks; for pest or weed control at 17.5 g/ha: 17.5 g ai/ha; for pest or weed control at 70 g/ha: 70 g ai/ha
Protocol: as §2

[6] = system: Monochoria vaginalis; experiment: Herbicidal activity in transplanted paddy rice; type: in vivo; conditions: paddy water application, after 3 weeks; for pest or weed control at 17.5 g/ha: 17.5 g ai/ha; for pest or weed control at 70 g/ha: 70 g ai/ha
Protocol: as §2

[7] = system: Scirpus juncoides; experiment: Herbicidal activity in transplanted paddy rice; type: in vivo; conditions: paddy water application, after 3 weeks; for pest or weed control at 17.5 g/ha: 17.5 g ai/ha; for pest or weed control at 70 g/ha: 70 g ai/ha
Protocol: as §2

[8] = system: rice (Orysa sativa var. Japonica); experiment: Herbicidal activity in transplanted paddy rice; type: in vivo; conditions: transplant rice (crop), paddy water application, after 3 weeks; for pest or weed control at 17.5 g/ha: 17.5 g ai/ha; for pest or weed control at 70 g/ha: 70 g ai/ha
Protocol: as §2

[9] = system: lambsquarter (Chenopodium album); experiment: Preemergence herbicidal activity; type: in vivo; conditions: Chenopodium album, pre-emergence, 480 h; pre-emergent, 140 g ai/ha, after 20-22 days; read-out: % Control CHEAL
Summary of the method: (§3)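 Seeds sown in 70:30 loam (pH about 8.1, about 1.5% organic matter) and sand mix, then sprayed preemergence at 187 L/ha with a track sprayer; controls received solvent blank. Pots kept in greenhouse, about 15 h photoperiod, about 23-29° C. day and 22-28° C. night, top-irrigated.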

[10] = system: redroot pigweed (Amaranthus retroflexus); experiment: Preemergence herbicidal activity; type: in vivo; conditions: Amaranthus retroflexus, pre-emergence, 480 h; pre-emergent, 140 g ai/ha, after 20-22 days; read-out: % Control AMARE
Summary of the method: as §3

[11] = system: velvetleaf (Abutilon theophrasti); experiment: Preemergence herbicidal activity; type: in vivo; conditions: Abutilon theophrasti, pre-emergence, 480 h; pre-emergent, 140 g ai/ha, after 20-22 days; read-out: % Control ABUTH
Summary of the method: as §3

[12] = Cyperus difformis, 504 h, read-out: % Control CYPDI
[13] = Echinochloa crus-galli, 504 h, read-out: % Control ECHCG
[14] = Pontederia vaginalis, 504 h, read-out: % Control MOOVA
[15] = Schoenoplectiella juncoides, 504 h, read-out: % Control SCPJU

Row | melting point | Structure (SMILES) | pest or weed control at 140 g/ha [1] [%] | pest or weed control at 140 g/ha [2] [%] | pest or weed control at 140 g/ha [3] [%] | pest or weed control at 70 g/ha [4, 12] [%] | pest or weed control at 70 g/ha [5, 13] [%] | pest or weed control at 70 g/ha [6, 14] [%] | pest or weed control at 70 g/ha [7, 15] [%] | pest or weed control at 70 g/ha ([8]; Oryza sativa, 504 h) [%] | also measured
1 | 145 to 146 °C | COC(=O)c1nc(-c2ccc(Cl)c(C(F)F)c2F)cc(N)c1Cl [Compound 4, 4-Amino-3-chloro-6-(4-chloro-2-fluoro-3-difluoromethylphenyl)pyridine-2-carboxylic acid methyl ester] | 85 | 100 | 100 | – | – | – | – | – | pest or weed control at 17.5 g/ha [4, 12]: 95%; pest or weed control at 17.5 g/ha [5, 13]: 0%; pest or weed control at 17.5 g/ha [6, 14]: 100%; pest or weed control at 17.5 g/ha [7, 15]: 70%; pest or weed control at 17.5 g/ha ([8]; Oryza sativa, 504 h): 0%
2 | – | COC(=O)c1nc(-c2ccc(Cl)c(CF)c2F)cc(N)c1Cl [Compound 5, 4-Amino-3-chloro-6-(4-chloro-2-fluoro-3-fluoromethylphenyl)pyridine-2-carboxylic acid methyl ester] | 90 | 35 | 100 | 100 | 20 | 100 | 90 | 0 | –
3 | 132 to 133 °C | CCOc1c(Cl)ccc(-c2cc(N)c(Cl)c(C(=O)OC)n2)c1Cl [Compound 7, 4-Amino-3-chloro-6-(2,4-dichloro-3-ethoxyphenyl)pyridine-2-carboxylic acid methyl ester] | 95 | 90 | 100 | 100 | 100 | 100 | 85 | 10 | –
4 | 154 to 156 °C | CCOc1c(Cl)ccc(-c2cc(N)c(Cl)c(C(=O)OC)n2)c1F [Compound 41, 4-amino-3-chloro-6-(4-chloro-2-fluoro-3-ethoxyphenyl)-pyridine-2-carboxylic acid methyl ester] | 98 | 85 | 95 | – | – | – | – | – | pest or weed control at 140 g/ha [9]: 90%; pest or weed control at 140 g/ha [10]: 50%; pest or weed control at 140 g/ha [11]: 80%; pest or weed control at 17.5 g/ha [4, 12]: 100%; pest or weed control at 17.5 g/ha [5, 13]: 50%; pest or weed control at 17.5 g/ha [6, 14]: 100%; pest or weed control at 17.5 g/ha [7, 15]: 90%; pest or weed control at 17.5 g/ha ([8]; Oryza sativa, 504 h): 10%
5 | 139 to 141 °C | COC(=O)c1nc(-c2ccc3c(c2F)OCO3)cc(N)c1Cl [Compound 46, 4-Amino-3-chloro-6-(2-fluoro-3,4 methylenedioxyphenyl)pyridine-2-carboxylic acid methyl ester] | 95 | 100 | 100 | – | – | – | – | – | pest or weed control at 35 g/ha ([4]; Cyperus difformis, 504 h, 35 g ai/ha, read-out: % Control CYPDI): 100%; pest or weed control at 35 g/ha ([5]; Echinochloa crus-galli, 504 h, 35 g ai/ha, read-out: % Control ECHCG): 20%; pest or weed control at 35 g/ha ([6]; Pontederia vaginalis, 504 h, 35 g ai/ha, read-out: % Control MOOVA): 100%; pest or weed control at 35 g/ha ([7]; Schoenoplectiella juncoides, 504 h, 35 g ai/ha, read-out: % Control SCPJU): 100%; pest or weed control at 35 g/ha ([8]; Oryza sativa, 504 h, 35 g ai/ha): 0%
6 | 154 to 155 °C | COC(=O)c1nc(-c2ccc(Br)c(OC)c2Cl)cc(N)c1Cl [Compound 52, 4-Amino-6-(4-bromo-2-chloro-3-methoxyphenyl)-3-chloropyridine-2-carboxylic acid, methyl ester] | 95 | 100 | 100 | 100 | 60 | 99 | 95 | 0 | pest or weed control at 140 g/ha [9]: 90%; pest or weed control at 140 g/ha [10]: 100%; pest or weed control at 140 g/ha [11]: 100%
7 | – | CCOC(=O)c1nc(-c2ccc(Cl)c(OC)c2F)cc(N)c1Cl [Compound 86, 4-amino-3-chloro-6-(4-chloro-2-fluoro-3-methoxyphenyl)-pyridine-2-carboxylic acid, ethyl ester] | 100 | 100 | 100 | 100 | 25 | 100 | 95 | 10 | –
8 | – | CCCCOC(=O)c1nc(-c2c(F)cc(Cl)c(OC)c2F)cc(N)c1Cl [Compound 88, 4-Amino-3-chloro-6-(4-chloro-2,6-difluoro-3-methoxyphenyl)pyridine-2-carboxylic acid, butyl ester] | – | – | – | 100 | 100 | 100 | 100 | 10 | –
9 | – | CCCCOC(=O)c1nc(-c2ccc(Cl)c(OC)c2Cl)cc(N)c1Cl [Compound 89, 4-Amino-3-chloro-6-(2,4-dichloro-3-methoxyphenyl)pyridine-2-carboxylic acid, butyl ester] | – | – | – | 100 | 85 | 100 | 90 | 0 | –
10 | 169 to 170 °C (dec.) | CC(F)c1c(Cl)ccc(-c2cc(N)cc(C(=O)O)n2)c1Cl (stereo not shown) [Compound 125, 4-Amino-6-[2,4 dichloro-3-(1-fluoroethyl)phenyl]pyridine-2-carboxylic acid] | – | – | – | 100 | 100 | 100 | 100 | 5 | pest or weed control at 140 g/ha [9]: 100%; pest or weed control at 140 g/ha [10]: 100%; pest or weed control at 140 g/ha [11]: 100%
11 | – | CCN(CC)CC.COc1c(Cl)ccc(-c2cc(N)c(Cl)c(C(=O)O)n2)c1Cl [Compound 136, 4-Amino-3-chloro-6-(2,4 dichloro-3-methoxyphenyl)pyridine-2-carboxylic acid, triethyl amine salt] | – | – | – | – | – | – | – | – | % Control CYPDI ([4]; 35 g ai/ha): 100%; % Control ECHCG ([5]; 35 g ai/ha): 15%; % Control MOOVA ([6]; 35 g ai/ha): 100%; % Control SCPJU ([7]; 35 g ai/ha): 80%; % Control ORYSA ([8]; 35 g ai/ha): 0%
